Results on 36 compounds are retold here after US11312712B2, “Azabenzimidazoles and their use as AMPA receptor modulators” (Janssen Pharmaceutica NV, priority 2015, dated 2022).

GluA1o-γ8 (GRIA1o-CACNG8 fusion construct), sequence (P42261 other isoform, or with tags, fused parts or gaps): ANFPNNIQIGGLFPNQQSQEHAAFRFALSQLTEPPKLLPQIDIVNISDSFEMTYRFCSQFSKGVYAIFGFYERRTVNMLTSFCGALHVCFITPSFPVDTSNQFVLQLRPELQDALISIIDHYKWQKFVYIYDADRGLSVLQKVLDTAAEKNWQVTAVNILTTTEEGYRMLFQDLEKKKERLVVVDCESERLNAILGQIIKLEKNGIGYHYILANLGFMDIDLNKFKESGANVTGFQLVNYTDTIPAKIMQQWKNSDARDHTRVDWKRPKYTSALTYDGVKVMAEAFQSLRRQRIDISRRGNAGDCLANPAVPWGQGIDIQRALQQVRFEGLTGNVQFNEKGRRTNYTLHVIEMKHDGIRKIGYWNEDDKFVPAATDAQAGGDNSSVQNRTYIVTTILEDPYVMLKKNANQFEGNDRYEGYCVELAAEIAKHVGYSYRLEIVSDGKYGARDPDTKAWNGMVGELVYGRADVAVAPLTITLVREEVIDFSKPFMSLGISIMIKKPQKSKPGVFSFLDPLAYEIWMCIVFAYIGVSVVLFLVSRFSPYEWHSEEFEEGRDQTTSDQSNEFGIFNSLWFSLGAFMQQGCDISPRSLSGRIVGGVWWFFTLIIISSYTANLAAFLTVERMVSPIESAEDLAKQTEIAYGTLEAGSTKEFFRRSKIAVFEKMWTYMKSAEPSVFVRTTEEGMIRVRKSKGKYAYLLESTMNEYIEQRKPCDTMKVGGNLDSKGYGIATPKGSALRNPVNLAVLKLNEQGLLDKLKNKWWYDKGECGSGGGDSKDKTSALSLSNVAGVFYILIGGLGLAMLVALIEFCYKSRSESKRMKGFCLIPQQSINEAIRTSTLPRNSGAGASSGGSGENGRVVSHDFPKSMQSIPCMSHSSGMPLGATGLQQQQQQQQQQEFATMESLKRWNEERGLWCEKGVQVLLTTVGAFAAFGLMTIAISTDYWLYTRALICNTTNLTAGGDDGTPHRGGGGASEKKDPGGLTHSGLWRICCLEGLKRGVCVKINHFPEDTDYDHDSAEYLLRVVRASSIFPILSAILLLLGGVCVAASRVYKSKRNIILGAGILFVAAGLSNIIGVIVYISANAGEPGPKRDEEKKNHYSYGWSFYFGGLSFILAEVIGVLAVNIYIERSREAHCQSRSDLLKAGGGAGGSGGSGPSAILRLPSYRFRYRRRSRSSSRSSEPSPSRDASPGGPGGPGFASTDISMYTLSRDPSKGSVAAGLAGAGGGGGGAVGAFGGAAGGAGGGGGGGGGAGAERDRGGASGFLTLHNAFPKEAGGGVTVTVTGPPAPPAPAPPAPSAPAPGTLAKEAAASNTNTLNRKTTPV

This test concerns the target GluA1o-γ8 (GRIA1o-CACNG8 fusion construct) (Homo sapiens (Human), UniProt P42261+Q8WXS5). The experiment in a line: Calcium flux assay (FLIPR), inhibition of TARP γ8 dependent AMPA receptor activity. The note with it: GluA1o-γ8 (GRIA1o-CACNG8 fusion) in HEK293 cells, calcium flux after 15 μM glutamate. In kind it is cell-based. Put shortly:
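Glutamate (15 μM) was added to a stable HEK293 line carrying the GluA1o–γ8 fusion, which had been preincubated with compound and calcium dye in HEPES buffer, pH 7.4. Normalized FLIPR fluorescence (no compound vs 10 μM CP465022) was fitted with four parameters; pIC50 is the midpoint's negative log.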
Consider `CCOc1nc2ccc(C(F)(F)F)nc2n1-c1cc(C)c2[nH]ncc2c1` [Example 242, 2-Ethoxy-3-(7-methyl-1H-indazol-5-yl)-5-(trifluoromethyl)imidazo[4,5-b]pyridine], for which the concentration for half-maximal inhibition (IC50) was 398 pM.
In the case of `CCOc1nc2ccc(C(F)(F)F)nc2n1-c1ccc2c(c1)CC(=O)N2` [Example 243, 5-[2-Ethoxy-5-(trifluoromethyl)imidazo[4,5-b]pyridin-3-yl]indolin-2-one], the 50% inhibitory concentration (IC50) was 15800 pM.
On to `COc1nc2ccc(C(F)(F)F)nc2n1-c1ccc2c(c1)CC(=O)N2` [Example 244, 5-[2-Methoxy-5-(trifluoromethyl)imidazo[4,5-b]pyridin-3-yl]indolin-2-one], for which the 50% inhibitory concentration (IC50) was 39800 pM.
For the compound `CS(=O)(=O)Cc1nc2ccc(C(F)(F)F)nc2n1-c1ccc2[nH]ncc2c1` [Example 245, 3-(1H-indazol-5-yl)-2-(methylsulfonylmethyl)-5-(trifluoromethyl)imidazo[4,5-b]pyridine], the 50% inhibitory concentration (IC50) is 316000 pM.
Consider `Cc1cc(-n2c3nc(C(F)(F)F)ccc3nc2[C@H]2C[C@@H](F)C2)cc2cn[nH]c12` [Example 246, 2-(3-Fluorocyclobutyl)-3-(7-methyl-1H-indazol-5-yl)-5-(trifluoromethyl)imidazo[4,5-b]pyridine], for which the half-inhibitory concentration (IC50) was 126 pM.
As for `Cc1cc(-n2c3nc(C(F)(F)F)ccc3nc2[C@H]2C[C@H](F)C2)cc2cn[nH]c12` [Example 247, 2-(3-Fluorocyclobutyl)-3-(7-methyl-1H-indazol-5-yl)-5-(trifluoromethyl)imidazo[4,5-b]pyridine], the half-inhibitory concentration (IC50) was 63.1 pM.
Turning to `FC(F)(F)c1ccc2nc([C@H]3C[C@@H](F)C3)n(-c3cc(Cl)c4[nH]ncc4c3)c2n1` [Example 248, 3-(7-Chloro-1H-indazol-5-yl)-2-(3-fluorocyclobutyl)-5-(trifluoromethyl)imidazo[4,5-b]pyridine], the 50% inhibitory concentration (IC50) was 158 pM.
With `Cc1ccc2nc([C@H]3C[C@H](F)C3)n(-c3cc(Cl)c4[nH]ncc4c3)c2n1` [Example 249, 3-(7-Chloro-1H-indazol-5-yl)-2-(3-fluorocyclobutyl)-5-methyl-imidazo[4,5-b]pyridine], the IC50 was 501 pM.
With `FC(F)(F)c1ccc2nc([C@H]3C[C@H](F)C3)n(-c3cc(Cl)c4[nH]ncc4c3)c2n1` [Example 250, 3-(7-Chloro-1H-indazol-5-yl)-2-(3-fluorocyclobutyl)-5-(trifluoromethyl)imidazo[4,5-b]pyridine], the half-maximal inhibitory concentration (IC50) is 31.6 pM.
For the compound `COC(C)(C)c1nc2ccc(C(F)(F)F)nc2n1-c1cc(C)c2[nH]ncc2c1` [Example 251, 2-(1-Methoxy-1-methyl-ethyl)-3-(7-methyl-1H-indazol-5-yl)-5-(trifluoromethyl)imidazo[4,5-b]pyridine], the IC50 is 2510 pM.
Consider `Cc1cc(-n2c(C(C)(F)F)nc3ccc(C(F)(F)F)nc32)cc2cn[nH]c12` [Example 252, 2-(1,1-Difluoroethyl)-3-(7-methyl-1H-indazol-5-yl)-5-(trifluoromethyl)imidazo[4,5-b]pyridine], for which the IC50 was 158 pM.
Regarding `Cc1cc(-n2c(C(C)(C)F)nc3ccc(C(F)(F)F)nc32)cc2cn[nH]c12` [Example 253, 2-(1-Fluoro-1-methyl-ethyl)-3-(7-methyl-1H-indazol-5-yl)-5-(trifluoromethyl)imidazo[4,5-b]pyridine], the 50% inhibitory concentration (IC50) was 200 pM.
Take `CC(C)(F)c1nc2ccc(C(F)(F)F)nc2n1-c1cc(Cl)c2[nH]ncc2c1` [Example 254, 3-(7-Chloro-1H-indazol-5-yl)-2-(1-fluoro-1-methyl-ethyl)-5-(trifluoromethyl)imidazo[4,5-b]pyridine]: the IC50 was 63.1 pM.
`Cc1cc(-n2c(C3CC3)nc3ccc(C(F)(F)F)nc32)cc2cn[nH]c12` [Example 255, 2-Cyclopropyl-3-(7-methyl-1H-indazol-5-yl)-5-(trifluoromethyl)imidazo[4,5-b]pyridine]: the half-maximal inhibitory concentration (IC50) was 31.6 pM.
Consider `FC(F)(F)c1ccc2nc(C3(F)CC3)n(-c3cc(Cl)c4[nH]ncc4c3)c2n1` [Example 258, 3-(7-Chloro-1H-indazol-5-yl)-2-(1-fluorocyclopropyl)-5-(trifluoromethyl)imidazo[4,5-b]pyridine], for which the IC50 was 63.1 pM.
Turning to `Cc1cc(-n2c(C3(F)CC3)nc3ccc(C(F)(F)F)nc32)cc2cn[nH]c12` [Example 259, 2-(1-Fluorocyclopropyl)-3-(7-methyl-1H-indazol-5-yl)-5-(trifluoromethyl)imidazo[4,5-b]pyridine], the IC50 was 79.4 pM.
For the compound `Cc1cc(-n2c(-c3ccnc(F)c3)nc3ccc(C(F)F)nc32)cc2cn[nH]c12` [Example 263, 5-(Difluoromethyl)-2-(2-fluoro-4-pyridyl)-3-(7-methyl-1H-indazol-5-yl)imidazo[4,5-b]pyridine], the concentration for half-maximal inhibition (IC50) was 158 pM.
On to `Fc1cc(-c2nc3ccc(C(F)F)nc3n2-c2cc(Cl)c3[nH]ncc3c2)ccn1` [Example 264, 3-(7-Chloro-1H-indazol-5-yl)-5-(difluoromethyl)-2-(2-fluoro-4-pyridyl)imidazo[4,5-b]pyridine], for which the IC50 was 100 pM.
Consider `FC(F)(F)c1ccc2nc(C(F)(F)F)n(-c3cc(Cl)c4cn[nH]c4c3)c2n1` [Example 265, 3-(4-Chloro-1H-indazol-6-yl)-2,5-bis(trifluoromethyl)imidazo[4,5-b]pyridine], for which the IC50 was 126000 pM.
For `CC(F)(F)c1nc2ccc(C(F)(F)F)nc2n1-c1ccc2[nH]c(=O)sc2c1` [Example 266, 6-[2-(1,1-Difluoroethyl)-5-(trifluoromethyl)imidazo[4,5-b]pyridin-3-yl]-3H-1,3-benzothiazol-2-one], the IC50 is 100 pM.
Consider `CC(F)(F)c1nc2ccc(C(F)(F)F)nc2n1-c1cc(Cl)c2[nH]ncc2c1` [Example 267, 3-(7-Chloro-1H-indazol-5-yl)-2-(1,1-difluoroethyl)-5-(trifluoromethyl)imidazo[4,5-b]pyridine], for which the IC50 is 15.8 pM.
With `Cc1ccc2nc(C(F)(F)F)n(-c3cc(Cl)c4[nH]ncc4c3)c2n1` [Example 268, 3-(7-Chloro-1H-indazol-5-yl)-5-methyl-2-(trifluoromethyl)imidazo[4,5-b]pyridine], the IC50 is 63.1 pM.
With `CC(C)c1nc2ccc(C(F)F)nc2n1-c1cc(Cl)c2[nH]ncc2c1` [Example 269, 3-(7-Chloro-1H-indazol-5-yl)-5-(difluoromethyl)-2-isopropyl-imidazo[4,5-b]pyridine], the IC50 is 31.6 pM.
Under `FC(F)(F)c1ccc2nc(C(F)(F)F)n(-c3cc(Cl)c4[nH]ncc4c3)c2n1` [Example 270, 3-(7-Chloro-1H-indazol-5-yl)-2,5-bis(trifluoromethyl)imidazo[4,5-b]pyridine] stands 20 pM.
`O=C1Cc2cc(-n3c(C(F)(F)F)nc4ccc(C(F)(F)F)nc43)cc(Cl)c2N1` [Example 271, 5-[2,5-Bis(trifluoromethyl)imidazo[4,5-b]pyridin-3-yl]-7-chloro-indolin-2-one]: the IC50 is 200 pM.
In the case of `O=C1Cc2cc(-n3c(C(F)F)nc4ccc(C(F)(F)F)nc43)cc(Cl)c2N1` [Example 272, 7-Chloro-5-[2-(difluoromethyl)-5-(trifluoromethyl)imidazo[4,5-b]pyridin-3-yl]indolin-2-one] it was 200 pM; in that of `Cc1cc(-n2c(C(C)C)nc3ccc(C(F)F)nc32)cc2cn[nH]c12` [Example 273, 5-(Difluoromethyl)-2-isopropyl-3-(7-methyl-1H-indazol-5-yl)imidazo[4,5-b]pyridine], 63.1 pM; in that of `Cc1nc2ccc(C(F)F)nc2n1-c1cc(Cl)c2[nH]ncc2c1` [Example 274, 3-(7-Chloro-1H-indazol-5-yl)-5-(difluoromethyl)-2-methyl-imidazo[4,5-b]pyridine], 316 pM.
As to `Cc1cc(-n2c(C(F)(F)F)nc3ccc(C(F)(F)F)nc32)cc2c1NC(=O)C2` [Example 275, 5-[2,5-Bis(trifluoromethyl)imidazo[4,5-b]pyridin-3-yl]-7-methyl-indolin-2-one], the IC50 was 126 pM.
Take `Cc1cc(-n2c(C(C)(F)F)nc3ccc(C(F)(F)F)nc32)cc2c1NC(=O)C2` [Example 276, 5-[2-(1,1-Difluoroethyl)-5-(trifluoromethyl)imidazo[4,5-b]pyridin-3-yl]-7-methyl-indolin-2-one]: the IC50 was 200 pM.
Under `FC(F)c1nc2ccc(C(F)(F)F)nc2n1-c1cc(Cl)c2[nH]ncc2c1` [Example 277, 3-(7-Chloro-1H-indazol-5-yl)-2-(difluoromethyl)-5-(trifluoromethyl)imidazo[4,5-b]pyridine] stands 63.1 pM; under `Cc1ccc2nc(C(F)F)n(-c3cc(Cl)c4[nH]ncc4c3)c2n1` [Example 278, 3-(7-Chloro-1H-indazol-5-yl)-2-(difluoromethyl)-5-methyl-imidazo[4,5-b]pyridine], 3160 pM.
`Fc1cnc2c(c1)nc(C(F)(F)F)n2-c1cc(Cl)c2[nH]ncc2c1` [Example 279, 3-(7-Chloro-1H-indazol-5-yl)-6-fluoro-2-(trifluoromethyl)imidazo[4,5-b]pyridine]: the IC50 was 1260 pM.
For `FC(F)c1nc2ccc(C(F)(F)F)nc2n1-c1cc(Br)c2[nH]ncc2c1` [Example 280, 3-(7-Bromo-1H-indazol-5-yl)-2-(difluoromethyl)-5-(trifluoromethyl)imidazo[4,5-b]pyridine], the IC50 was 15.8 pM.
Turning to `Cc1cc(-n2c(C(F)(F)F)nc3ccc(C(F)(F)F)nc32)cc2sc(=O)[nH]c12` [Example 281, 6-[2,5-Bis(trifluoromethyl)imidazo[4,5-b]pyridin-3-yl]-4-methyl-3H-1,3-benzothiazol-2-one], the IC50 is 63.1 pM.
For `O=c1[nH]c2c(Cl)cc(-n3c(C(F)(F)F)nc4ccc(C(F)(F)F)nc43)cc2s1` [Example 282, 6-[2,5-Bis(trifluoromethyl)imidazo[4,5-b]pyridin-3-yl]-4-chloro-3H-1,3-benzothiazol-2-one], the 50% inhibitory concentration (IC50) was 31.6 pM.
